{
  "source": "patent US20040229772A1",
  "about": "“Peptides responsive to antibodies against consensus peptide of the CS4-CFA/I family proteins” (priority 1996, published 2004)",
  "type_in_all_cases": "binding",
  "key": {"[1]": {"tested_on": "antibodies raised to the consensus peptide", "experiment": "ELISA of 8-mer peptides with rabbit antibodies", "details": "for reactivity of 8-mer peptides with antibodies from the rabbits: rabbit antibodies raised to consensus peptide SEQ ID NO:1, biotin-SGSG-peptide on streptavidin; for interaction of peptides with the antibodies raised to the consensus peptide: rabbit antibodies raised to consensus peptide SEQ ID NO:1", "description": "(§1) Blocks of pins for cleavable syntheses were obtained from Chiron Mimotopes U.S. Peptide synthesis was carried out according to the manufacturer's instructions using Opfp-derivatized amino acids. Peptides of length 8 with 7 overlap were manufactured in order to locate all linear epitopes in the sequence with a highest redundancy. […] Peptides were cleaved from the pins using 0.1 M phosphate buffer, pH 8.0, containing 40% acetonitrile. Two peptides were made and sacrificed for amino acid analysis as proof of peptide purity. A dinitrophenol (DNP) pin was included so that the efficiency of the cleavage could be monitored spectrophotometrically.\n(§2) For blocking, a composition containing 5% nonfat dry milk in PBS+0.2% sodium azide was used. Stock streptavidin (Calbiochem Corp., La Jolla, Calif.) at 1 mg/ml in water was kept frozen in aliquots for up to several months. On the day of use, the stock streptavidin was diluted in phosphate buffered saline (PBS) to provide a concentration of 5 μg/ml streptavidin. Goat F(ab′)2 anti-mouse, anti-rabbit and anti-human sera were labeled with alkaline phosphatase (Biosource, International, Camarillo, Calif.).\n(§3) Streptavidin was plated at 5 μg/ml, 50 μl per well, and incubated over night at 4° C. Plates were then washed by hand (Nunc Immunowash 12 hand plate washer. Fisher Scientific, Pittsburgh, Pa.) three times with PBS/0.1% TWEEN 20™. Peptides were then diluted to 10 μg/ml in PBS and plated at 50-μl/well. After incubation for one hour at room temperature followed by washing, the peptides were incubated with sera diluted in blocker at appropriate concentrations (5% nonfat dry milk) for 2 hours at room temperature. After washing the wells, 50 μl of phosphatase-labeled anti-serum IgG diluted 1:1000 in blocker was added to each well and was allowed to incubate at room temperature for 1 hour. The plates were washed. The 100 μl of PNDP (p-nitrophenylphosphate) substrate, prepared according to the manufacturer's instructions, was added to each well. Results were read at 5, 15 and 60 minutes using a microtiter plate reader (UVmax™, Moelcular Devices, Sunnyvale, Calif.).\nAntibodies from the rabbits were then tested against the specific 8-mer peptides obtained from SEQ ID NO:1 in the manner disclosed above to determine the binding sites of the antibodies in the sera with the consensus peptide."}, "Antibody to 0166 lower": {"tested_on": "Antibody to 0166 lower", "experiment": "ELISA of 8-mer peptides (pins) with rabbit serum", "description": "as §1, §2, §3\n(§4) Partially to fully purified colonization factor (40% to 100% pure) was run on SDS-PAGE gel (5-15 μg/lane of 10 comb gel (precast 10 comb, 1 mm thickness, Tris-tricene gel from Novex, San Diego, Calif.), for primary immunization run 9 lanes for each rabbit (45-135 μg CF protein with ½ the amount used in the primary immunization used as a booster). The gel was stained with 0.5% COOMASSIE BLUE™ (BioRad, Richmond, Calif.) in water for 1 hour, then destained with multiple changes of water for 60-90 minutes. The colonization factor bands were excised with a scalpel and the excess gel trimmed. The bands were stored at −20° C. until use.\n(§5) After removal from freezer, the gel slices were transferred to a glass tissue homogenizer using a teflon pestle with grooves at the tip. The slices were ground with 0.3 ml phosphate buffered saline (PBS). The drill was run to homogenize the gel for 30 to 45 seconds. (In the instant case, a pestle with a shaft of steel was used which allowed placement of the pestle into the chuck of the hand-held drill.)\n(§6) The homogenate was transferred to 16 mm×150 mm test tubes with disposable plastic transfer pipet. The pestle and homogenizer vessel was rinsed repeatedly with PBS and the contents transferred to the 16×150 test tube until a volume of 1.2 ml was obtained.\n(§7) The sample obtained above was placed in a vortex mixer and vortexed on high. Freund's adjuvant 1.2 ml was added. (Complete Freund's was used for the primary immunization, while incomplete Freund's was used for the boost.) The composition was vortexed until a thick emulsion of almost a butter consistency was obtained (12-20 minutes).\n(§8) A preimmune serum was obtained on all animals, which were then immunized with the 1 ml of the emulsion subcutaneously at 4-6 spots on the shoulders and rump. The animals were boosted three weeks later, then bleed 10 days after the booster shots. […]"}, "Antibody to CS4": {"tested_on": "Antibody to CS4", "experiment": "ELISA of 8-mer peptides (pins) with rabbit serum", "details": "a listed pin number means recognized", "description": "as §1, §2, §3, §4, §5, §6, §7, §8"}, "Antibody to CS17": {"tested_on": "Antibody to CS17", "experiment": "ELISA of 8-mer peptides (pins) with rabbit serum", "details": "a listed pin number means recognized", "description": "as §1, §2, §3, §4, §5, §6, §7, §8"}, "Antibody to CS1": {"tested_on": "Antibody to CS1", "experiment": "ELISA of 8-mer peptides (pins) with rabbit serum", "details": "a listed pin number means recognized", "description": "as §1, §2, §3, §4, §5, §6, §7, §8"}, "Antibody to CFA/I": {"tested_on": "Antibody to CFA/I", "experiment": "ELISA of 8-mer peptides (pins) with rabbit serum", "description": "as §1, §2, §3, §4, §5, §6, §7, §8"}, "Antibody to 0166 upper": {"tested_on": "Antibody to 0166 upper", "experiment": "ELISA of 8-mer peptides (pins) with rabbit serum", "description": "as §1, §2, §3, §4, §5, §6, §7, §8"}, "Antibody to CS2": {"tested_on": "Antibody to CS2", "experiment": "ELISA of 8-mer peptides (pins) with rabbit serum", "details": "a listed pin number means recognized", "description": "as §1, §2, §3, §4, §5, §6, §7, §8"}, "[2]": {"details": "rabbit 1082, a listed pin number means recognized"}, "[3]": {"details": "rabbit 1081, a listed pin number means recognized"}},
  "data": [
    {"sequence": "KNITVTAS (listed as Escherichia coli) [compound 3]", "values": [
      {"measurement": "reactivity of 8-mer peptides with antibodies from the rabbits", "setting": "[1]", "result": "most reactive"},
      {"measurement": "pins (8-aa peptide) recognized by serum", "setting": "Antibody to 0166 lower; rabbit 1083, a listed pin number means recognized", "result": 3},
      {"measurement": "pins (8-aa peptide) recognized by serum", "setting": "Antibody to CS4; Antibody to CS4, rabbit 940", "result": 3},
      {"measurement": "pins (8-aa peptide) recognized by serum", "setting": "Antibody to CS17; Antibody to CS17, rabbit 1080", "result": 3},
      {"measurement": "pins (8-aa peptide) recognized by serum", "setting": "Antibody to CS1; Antibody to CS1, rabbit 1089", "result": 3}
    ]},
    {"sequence": "ADGSALPS (listed as Escherichia coli) [compound 20]", "values": [
      {"measurement": "pins (8-aa peptide) recognized by serum", "setting": "Antibody to CS1; Antibody to CS1, rabbit 1089", "result": 20},
      {"measurement": "pins (8-aa peptide) recognized by serum", "setting": "Antibody to CS1; Antibody to CS1, rabbit 1090", "result": 20}
    ]},
    {"sequence": "SALPSAVA (listed as Escherichia coli) [compound 23]", "values": [
      {"measurement": "reactivity of 8-mer peptides with antibodies from the rabbits", "setting": "[1]", "result": "most reactive"},
      {"measurement": "pins (8-aa peptide) recognized by serum", "setting": "Antibody to CS1; Antibody to CS1, rabbit 1090", "result": 23}
    ]},
    {"sequence": "ITVTASVD (listed as Escherichia coli) [compound 5]", "values": [
      {"measurement": "reactivity of 8-mer peptides with antibodies from the rabbits", "setting": "[1]", "result": "most reactive"}
    ]},
    {"sequence": "TIDLLQAD (listed as Escherichia coli) [compound 14]", "values": [
      {"measurement": "reactivity of 8-mer peptides with antibodies from the rabbits", "setting": "[1]", "result": "most reactive"},
      {"measurement": "pins (8-aa peptide) recognized by serum", "setting": "Antibody to 0166 lower; [2]", "result": 14},
      {"measurement": "pins (8-aa peptide) recognized by serum", "setting": "Antibody to CS4; Antibody to CS4, rabbit 940", "result": 14},
      {"measurement": "pins (8-aa peptide) recognized by serum", "setting": "Antibody to CFA/I; rabbit 1078, a listed pin number means recognized", "result": 14},
      {"measurement": "pins (8-aa peptide) recognized by serum", "setting": "Antibody to CFA/I; rabbit 1079, a listed pin number means recognized", "result": 14},
      {"measurement": "pins (8-aa peptide) recognized by serum", "setting": "Antibody to 0166 upper; rabbit 934, a listed pin number means recognized", "result": 14}
    ]},
    {"sequence": "ALPSAVAL (listed as Escherichia coli) [compound 24]", "values": [
      {"measurement": "reactivity of 8-mer peptides with antibodies from the rabbits", "setting": "[1]", "result": "most reactive"},
      {"measurement": "pins (8-aa peptide) recognized by serum", "setting": "Antibody to CS4; Antibody to CS4, rabbit 940", "result": 24},
      {"measurement": "pins (8-aa peptide) recognized by serum", "setting": "Antibody to CS1; Antibody to CS1, rabbit 1090", "result": 24},
      {"measurement": "pins (8-aa peptide) recognized by serum", "setting": "Antibody to CS2; Antibody to CS2, rabbit 1077", "result": 24}
    ]},
    {"sequence": "TASVDPTI (listed as Escherichia coli) [compound 8]", "values": [
      {"measurement": "reactivity of 8-mer peptides with antibodies from the rabbits", "setting": "[1]", "result": "most reactive"},
      {"measurement": "pins (8-aa peptide) recognized by serum", "setting": "Antibody to CS4; Antibody to CS4, rabbit 938", "result": 8},
      {"measurement": "pins (8-aa peptide) recognized by serum", "setting": "Antibody to CS17; Antibody to CS17, rabbit 1084", "result": 8},
      {"measurement": "pins (8-aa peptide) recognized by serum", "setting": "Antibody to CS1; Antibody to CS1, rabbit 1090", "result": 8},
      {"measurement": "pins (8-aa peptide) recognized by serum", "setting": "Antibody to CS2; Antibody to CS2, rabbit 1076", "result": 8},
      {"measurement": "pins (8-aa peptide) recognized by serum", "setting": "Antibody to CS2; Antibody to CS2, rabbit 1077", "result": 8}
    ]},
    {"sequence": "AVALTYSP (listed as Escherichia coli) [compound 28]", "values": [
      {"measurement": "interaction of peptides with the antibodies raised to the consensus peptide", "setting": "[1]", "result": "more reliably interactive"},
      {"measurement": "reactivity of 8-mer peptides with antibodies from the rabbits", "setting": "[1]", "result": "most reactive"},
      {"measurement": "pins (8-aa peptide) recognized by serum", "setting": "Antibody to CS1; Antibody to CS1, rabbit 1089", "result": 28},
      {"measurement": "pins (8-aa peptide) recognized by serum", "setting": "Antibody to CS1; Antibody to CS1, rabbit 1090", "result": 28}
    ]},
    {"sequence": "DGSALPSA (listed as Escherichia coli) [compound 21]", "values": [
      {"measurement": "pins (8-aa peptide) recognized by serum", "setting": "Antibody to CS1; Antibody to CS1, rabbit 1089", "result": 21},
      {"measurement": "pins (8-aa peptide) recognized by serum", "setting": "Antibody to CS1; Antibody to CS1, rabbit 1090", "result": 21}
    ]},
    {"sequence": "VALTYSPA (listed as Escherichia coli) [compound 29]", "values": [
      {"measurement": "reactivity of 8-mer peptides with antibodies from the rabbits", "setting": "[1]", "result": "most reactive"},
      {"measurement": "pins (8-aa peptide) recognized by serum", "setting": "Antibody to CS1; Antibody to CS1, rabbit 1089", "result": 29},
      {"measurement": "pins (8-aa peptide) recognized by serum", "setting": "Antibody to CS1; Antibody to CS1, rabbit 1090", "result": 29}
    ]},
    {"sequence": "ASVDPTID (listed as Escherichia coli) [compound 9]", "values": [
      {"measurement": "interaction of peptides with the antibodies raised to the consensus peptide", "setting": "[1]", "result": "more reliably interactive"},
      {"measurement": "reactivity of 8-mer peptides with antibodies from the rabbits", "setting": "[1]", "result": "most reactive"},
      {"measurement": "pins (8-aa peptide) recognized by serum", "setting": "Antibody to 0166 lower; [2]", "result": 9},
      {"measurement": "pins (8-aa peptide) recognized by serum", "setting": "Antibody to CS4; Antibody to CS4, rabbit 938", "result": 9},
      {"measurement": "pins (8-aa peptide) recognized by serum", "setting": "Antibody to 0166 upper; [3]", "result": 9},
      {"measurement": "pins (8-aa peptide) recognized by serum", "setting": "Antibody to CS17; Antibody to CS17, rabbit 1084", "result": 9},
      {"measurement": "pins (8-aa peptide) recognized by serum", "setting": "Antibody to CS1; Antibody to CS1, rabbit 1090", "result": 9},
      {"measurement": "pins (8-aa peptide) recognized by serum", "setting": "Antibody to CS2; Antibody to CS2, rabbit 1076", "result": 9},
      {"measurement": "pins (8-aa peptide) recognized by serum", "setting": "Antibody to CS2; Antibody to CS2, rabbit 1077", "result": 9}
    ]},
    {"sequence": "LPSAVALT (listed as Escherichia coli) [compound 25]", "values": [
      {"measurement": "reactivity of 8-mer peptides with antibodies from the rabbits", "setting": "[1]", "result": "most reactive"},
      {"measurement": "pins (8-aa peptide) recognized by serum", "setting": "Antibody to CS4; Antibody to CS4, rabbit 940", "result": 25}
    ]},
    {"sequence": "DLLQADGS (listed as Escherichia coli) [compound 16]", "values": [
      {"measurement": "pins (8-aa peptide) recognized by serum", "setting": "Antibody to 0166 upper; [3]", "result": 16}
    ]}
  ]
}
